One assay addresses T1, Oxidized EcDsbA (Escherichia coli, UniProt P0AEG4).
T1 construct: made in house
The experiment in a line: Isothermal titration calorimetry of compounds into EcDsbA. The class given is binding. The conditions noted are these: 25°C. The procedure:
Oxidized EcDsbA was diluted to 50 μM in 25 mM HEPES pH 7.4, 50 mM NaCl and 5% DMSO. Compounds were dissolved in 100% DMSO, and then diluted to a final concentration of 2 mM into 25 mM HEPES pH 7.4 50 mM NaCl with a final DMSO concentration of 5%. All experiments were performed using the MicroCal Auto-ITC200 instrument (GE Healthcare, USA), loading 200 μL of EcDsbA in the sample cell and 40 μL of compound in the syringe. Titrations were set up at 25°C with 19 injections of 2 μL separated by 180 seconds and a constant stirring speed of 1000 rpm. A preliminary injection of 0.5 μL was added to avoid slow leakage of titrant into the sample cell before the first 2 μL injection and the corresponding data point was excluded from analysis. Every compound was tested with three technical replicates. An additional titration of compound into buffer only (25 mM HEPES pH 7.4, 50 mM NaCl and 5% DMSO) was performed to measure the background heat of dilution. Analysis was performed with the MicroCal Origin software (version 7.0552).
Background: ITC needs no label: the signal is the heat of the interaction.

The target of the next assay is PmDsbA. Details: method as in PMID 24831013. The conditions noted are these: ITC; cited from earlier work.

T1 sequence (P0AEG4 20-208): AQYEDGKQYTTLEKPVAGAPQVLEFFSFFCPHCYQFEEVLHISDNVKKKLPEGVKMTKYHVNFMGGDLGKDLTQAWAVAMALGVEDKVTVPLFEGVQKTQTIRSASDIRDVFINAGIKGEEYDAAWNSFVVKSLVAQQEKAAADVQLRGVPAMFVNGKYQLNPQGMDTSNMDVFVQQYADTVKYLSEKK

Regarding `O=C(NCc1ccccc1)[C@H](Cc1c[nH]c2ccccc12)NC(=O)N1CCOCC1` [Compound 1, (S)-2-[N-(Morpholine-1-carbonyl)amino]-3-(1H-indol-3-yl)-N-(benzyl)propanamide], the “ITC binding to EcDsbA” value at Oxidized EcDsbA (50 μM EcDsbA, 2 mM compound in syringe, 5% DMSO) was “little evidence of binding”. Further, the “release of energy for the highest peak (ITC)” value on Oxidized EcDsbA (titration of EcDsbA) was -0.60 µcal/s.

As to PWATCDS, at PmDsbA, the Kd – broadly, the free concentration of one partner at which half of the binding sites on the other are occupied at equilibrium, for simple one-to-one binding – is 8.3 ± 0.4 µM; the ΔH is -13.7 ± 0.3 kcal/mol; the ΔS is on record as -22.3±1.1 cal.mol^-1.deg^-1.

The values are drawn from paper PMC4520593, “Virtual Screening of Peptide and Peptidomimetic Fragments Targeted to Inhibit Bacterial Dithiol Oxidase DsbA” (PLoS ONE, 2015).
